Where “and” joins values, the source holds several entries; their conditions need not be identical. Equal entries are not always repeated. Entries after “also recorded” stand apart in the source; their conditions may differ. Where two headings read alike, the source gives them in different places. No end group written: not given here.
Tests used:
A. kurodai FaNaC = assay: Two-electrode voltage clamp of oocytes expressing A. kurodai FaNaC; assay type: cell-based, Aplysia kurodai; details: for peptide potency/activity compared to FMRFa (in words): Fig. 2 A
Source text: (§1) A. kurodai FaNaC (NCBI GenBank: AB206707.1) and M. fuliginosus FaNaC1 (NCBI GenBank: ON156825.1) cDNAs in tailored pSP64 plasmid vectors including Xenopus laevis UTRs and poly(A) sequences have been described at length previously ([9],[16]). A. kurodai FaNaC F188Y, F188tag (amber stop codon), F453Y, and F453tag mutants were generated by site-directed mutagenesis as detailed in ([17]) with custom primers (Merck) and PCR with Phusion High-Fidelity DNA polymerase (Thermo Fisher). All coding sequences were confirmed by Sanger sequencing (Genewiz). Plasmid DNA was linearized by digesting with EcoRI (Thermo Fisher) and purified with the DNA Clean & Concentrator Kit (Zymo). mRNA was then transcribed using the mMESSAGE mMACHINE SP6 Transcription Kit (Thermo Fisher) and purified with the RNeasy Mini Kit (Qiagen).
(§2) X. laevis frog oocytes were shipped from Ecocyte Bioscience, Germany, and stored at 18°C in 50% Leibovitz’s L-15 medium (Gibco) supplemented with additional 0.25 mg/mL gentamicin, 1 mM L-glutamine, and 15 mM HEPES, pH 7.6.
(§3) For wild-type (WT) and conventional mutant channels, oocytes were injected with 40 nL of 120 ng/μL FaNaC mRNA via glass micropipettes backfilled with mineral oil, using a Nanoliter2010 injector (World Precision Instruments). For the expression of noncanonical mutant channels, aminoacylated tRNA was first resuspended in 2 μL of water and deprotected by 5 min in UV light via a fan-cooled coil of 365-nm realUV LED strip lights (Waveform Lighting). Deprotected aminoacylated tRNA was then mixed 2:1 with 700 ng/μL UAG mutant FaNaC mRNA, and 40 nL of this mix was injected into oocytes.
(§4) Two-electrode voltage clamp experiments were performed 24–36 h after injection. The oocyte was placed in an RC-3Z bath (Warner Instruments) and perfused continuously with ND96 solution (NaCl 96 mM, KCl 2 mM, CaCl2 1.8 mM, MgCl2 1 mM, HEPES 5 mM, pH 7.5 with NaOH). In experiments without Ca^2+, CaCl2 was replaced with BaCl2, and oocytes were injected with 40 nL of water or 25 mM EGTA 10–45 min before recording. In experiments probing increased Ca^2+ concentrations, extracellular solutions contained NaCl 140 mM, HEPES 10 mM, CaCl2 1 mM, pH 7.5 with NaOH; or NMDG-Cl 126.5 mM, HEPES 10 mM, CaCl2 10 mM, pH 7.5 with NaOH (leaving a small amount of Na^+ in the final solution), based on previous work ([21]). ND96 (or the latter solutions) alone or containing peptides was rapidly exchanged via a VCS-8 pinch-valve control perfusion system (Warner Instruments). […] Oocytes were clamped at −80 mV for all experiments with an Oocyte Clamp OC-725D amplifier (Warner Instruments) and Axon Digidata 1550B digitizer ([…]). Data were recorded at 1000 Hz and filtered at 100–200 Hz. 50 Hz noise was eliminated with a Hum Bug (Digitimer). In measuring reversal potentials in normal and high Ca^2+ solutions, 150 ms voltage ramps from −80 mV to 80 mV were applied continuously, before and during FMRFa application. The resulting “current ramp” in the absence of FMRFa was subtracted from that during peak FMRFa-gated current to plot the FMRFa-induced current-voltage relationship.
(§5) Current amplitude was measured in Clampfit 11.1 (Molecular Devices), and subsequent data analyses were performed in Prism v9 (GraphPad Software). For peptide concentration-response data, peak current amplitude was normalized to maximum, plotted against peptide concentration, and fitted with four-parameter nonlinear regression (Prism v9) for each oocyte. These were averaged to give the reported means ± SE in the main text. For display in figures, a single fit to the average normalized responses (±SE) is shown. […] Therefore, in most M. fuliginosus/LMRFa experiments only, just two LMRFa applications were used: one test concentration and one 10 μM for normalization. This yielded n = 3 oocytes for responses to different concentrations, against which a single curve was fitted and half-maximal effective concentration (EC50) was calculated. […]

M. fuliginosus FaNaC1 = assay: Two-electrode voltage clamp of oocytes expressing M. fuliginosus FaNaC1; assay type: cell-based, Malacoceros fuliginosus; details: for peptide potency/activity compared to FMRFa (in words): Fig. 2 A
Source text: as §1, §2, §3, §4, §5

[1] = target: Malacoceros fuliginosus FaNaC1, wild type (Malacoceros fuliginosus)
clade 1 FaNaCs = details: cited from earlier work; for sensitivity to native peptides (in words): extant clade 1 FaNaCs ref 9,27
A. kurodai FaNaC F188Cha = assay: Two-electrode voltage clamp, nonsense suppression mutant F188Cha; assay type: cell-based, Aplysia kurodai; details: concentrations up to 100 μM
Source text: as §1
(§6) Noncanonical amino acids were incorporated into positions F188 and F453 of A. kurodai FaNaC via a nonsense suppression approach using an amber stop codon (TAG/UAG) and modified Tetrahymena thermophila Gln73 tRNA (THG73) ([19],[20]). […]
(§7) Two-electrode voltage clamp experiments were performed 24–36 h after injection. […] Data were recorded at 1000 Hz and filtered at 100–200 Hz. […]
(§8) Current amplitude was measured in Clampfit 11.1 (Molecular Devices), and subsequent data analyses were performed in Prism v9 (GraphPad Software). […]

[2] = tested on: A. kurodai FaNaC F453hPhe; assay: Two-electrode voltage clamp, nonsense suppression mutant F453hPhe; assay type: cell-based, Aplysia kurodai
Source text: as §1, §6, §7, §8

A. kurodai FaNaC F188Phe = assay: Two-electrode voltage clamp, nonsense suppression mutant F188Phe; assay type: cell-based, Aplysia kurodai
Source text: as §1, §6, §7, §8

Helix aspersa FaNaC = tested on: Helix aspersa FaNaC; design: method as in PMID 9343851; details: stated as shared by A. kurodai FaNaC and H. aspersa FaNaC ref 27; cited from earlier work
[3] = tested on: M. fuliginosus FaNaC1 position α3-F129 UAG mutant; assay: Two-electrode voltage clamp, nonsense suppression at F129 (UAG mutant mRNA and phenylalaninylated tRNA); assay type: cell-based, Malacoceros fuliginosus; details: UAG mutant mRNA and phenylalaninylated tRNA (not shown)
[4] = tested on: A. kurodai FaNaC F188hPhe; assay: Two-electrode voltage clamp, nonsense suppression mutant F188hPhe; assay type: cell-based, Aplysia kurodai; details: concentrations up to 100 μM
Source text: as §1, §6, §7, §8

A. kurodai FaNaC F453Cha = assay: Two-electrode voltage clamp, nonsense suppression mutant F453Cha; assay type: cell-based, Aplysia kurodai
Source text: as §1, §6, §7, §8

A. kurodai FaNaC F453Y = assay: Two-electrode voltage clamp, conventional mutant F453Y; assay type: cell-based, Aplysia kurodai
Source text: as §1, with “(Qiagen). […]” for “(Qiagen).”
as §7
(§9) Current amplitude was measured in Clampfit 11.1 (Molecular Devices), and subsequent data analyses were performed in Prism v9 (GraphPad Software). […] This yielded n = 3 oocytes for responses to different concentrations, against which a single curve was fitted and half-maximal effective concentration (EC50) was calculated. […]

[5] = tested on: M. fuliginosus FaNaC1 F129 A/L/Q mutants; design: method as in PMID 38337033; details: conventional F129 A/L/Q mutants ref 15; cited from earlier work
A. kurodai FaNaC F188Y = assay: Two-electrode voltage clamp, conventional mutant F188Y; assay type: cell-based, Aplysia kurodai
Source text: as §1, with “(Qiagen). […]” for “(Qiagen).”
as §7, §9

A. kurodai FaNaC F453Phe = assay: Two-electrode voltage clamp, nonsense suppression mutant F453Phe; assay type: cell-based, Aplysia kurodai
Source text: as §1, §6, §7, §8

clade 2 FaNaCs = details: extant clade 2 FaNaCs ref 9,23,27; cited from earlier work
[6] = target: Aplysia kurodai FMRFa-gated sodium channel (FaNaC), wild type (Aplysia kurodai)
[7] = target: Malacoceros fuliginosus FaNaC1, wild type (Malacoceros fuliginosus); remark: listed apart in the source
[8] = X. laevis oocytes, -80 mV, mean ± SE

FMQFa: FMRFa analog, R3 replaced with glutamine (FMQF-NH2)
currents at 100 μM peptide (A. kurodai FaNaC; 100 μM): no currents | peptide potency/activity compared to FMRFa (in words) (A. kurodai FaNaC; X. laevis oocytes): total reduction in potency

SGFMRFa: FMRFa with N-terminal serine-glycine insertion (SGFMRF-NH2)
peptide potency/activity compared to FMRFa (in words) (A. kurodai FaNaC; X. laevis oocytes): abolished activity | peptide potency/activity compared to FMRFa (in words) (M. fuliginosus FaNaC1; X. laevis oocytes): no effect

(F3-Phe)MRFa (peptide)
EC50 of current activation, two-electrode voltage clamp, X. laevis oocytes [1]: 0.011 µM

FMKFa: FMRFa analog, R3 replaced with lysine; also a native peptide (FMKF-NH2)
sensitivity to native peptides (in words) (clade 1 FaNaCs): sensitive | activation by peptide (in words) (clade 1 FaNaCs; various mollusk FaNaCs ref 7,9): activated

H-Phe-Met-Arg-Phe-NH2 [FMRFa]
response to FMRFa (in words) (A. kurodai FaNaC F188Cha): little or no response | FMRFa sensitivity (in words) [2]: relatively little effect on FMRFa sensitivity | FMRFa activation/potency (in words) (A. kurodai FaNaC F188Phe): decreased FMRFa potency; also recorded: activated by FMRFa at micromolar concentrations | EC50 (Helix aspersa FaNaC): 3 to 5 µM | FMRFa-gated currents (in words) [3]: no FMRFa-gated currents | response to FMRFa (in words) [4]: little or no response | FMRFa sensitivity (in words) (A. kurodai FaNaC F453Cha): relatively little effect on FMRFa sensitivity | EC50 (A. kurodai FaNaC; [8]): 5.48 µM and 5.5 µM | FMRFa sensitivity (in words) (A. kurodai FaNaC F453Y): abolished FMRFa sensitivity | sensitivity to FMRFa (in words) [5]: reduced sensitivity to FMRFa | FMRFa activation (in words) (A. kurodai FaNaC F188Y): activated by FMRFa at micromolar concentrations | EC50 (M. fuliginosus FaNaC1; [8]): 0.35 ± 0.06 µM | FMRFa potency compared to regular WT (in words) (A. kurodai FaNaC F453Phe): decreased FMRFa potency | binding of native peptides (in words) (clade 2 FaNaCs): bind | sensitivity to native peptides (in words) (clade 1 FaNaCs): sensitive

FMRAa: FMRFa analog, F4 replaced with alanine (FMRA-NH2)
peptide potency/activity compared to FMRFa (in words) (M. fuliginosus FaNaC1; X. laevis oocytes): abolished peptide potency completely

FMRF-OMe: FMRF with C-terminal O-methylester
peptide potency/activity compared to FMRFa (in words) (M. fuliginosus FaNaC1; X. laevis oocytes): drastically reduced activation

LMRFa: synthetic FMRFa analog, F1 replaced with smaller hydrophobic side chain (L) (LMRF-NH2)
peptide potency/activity compared to FMRFa (in words) (A. kurodai FaNaC; X. laevis oocytes): activated no current | deactivation after peptide application (M. fuliginosus FaNaC1): especially slow | peptide potency/activity compared to FMRFa (in words) (M. fuliginosus FaNaC1; X. laevis oocytes): similarly to FMRFa

FMRVa: FMRFa analog, F4 replaced with valine (FMRV-NH2)
peptide potency/activity compared to FMRFa (in words) (M. fuliginosus FaNaC1; X. laevis oocytes): did not significantly affect peptide potency

FVRFa: FMRFa analog, M2 replaced with valine (FVRF-NH2)
peptide potency/activity compared to FMRFa (in words) (A. kurodai FaNaC; X. laevis oocytes): significantly less potent than FMRFa | peptide potency/activity compared to FMRFa (in words) (M. fuliginosus FaNaC1; X. laevis oocytes): no significant effect on potency

FKRFa: FMRFa analog, M2 replaced with lysine (FKRF-NH2)
peptide potency/activity compared to FMRFa (in words) (A. kurodai FaNaC; X. laevis oocytes): no activity | peptide potency/activity compared to FMRFa (in words) (M. fuliginosus FaNaC1; X. laevis oocytes): no significant effect on potency

Ac-FMRFa: FMRFa with N-terminal acetylation
peptide potency/activity compared to FMRFa (in words) (A. kurodai FaNaC; X. laevis oocytes): little effect | peptide potency/activity compared to FMRFa (in words) (M. fuliginosus FaNaC1; X. laevis oocytes): increased potency

AMRFa: synthetic FMRFa analog, F1 replaced with smaller hydrophobic side chain (A) (AMRF-NH2)
peptide potency/activity compared to FMRFa (in words) (A. kurodai FaNaC; X. laevis oocytes): activated no current | peptide potency/activity compared to FMRFa (in words) (M. fuliginosus FaNaC1; X. laevis oocytes): similarly to FMRFa

B1: H-Phe-Met-Arg-Phe-NH2 (FMRFamide) (peptide)
peptide: H-FMRF-NH2
EC50 of current activation, two-electrode voltage clamp, X. laevis oocytes [6]: 5.48 µM | EC50 of current activation, two-electrode voltage clamp, X. laevis oocytes [7]: 0.35 µM
